The values below come from ChEMBL document CHEMBL1201862, “PubChem BioAssay data set” (2004).

Holding throughout (assay): growth of human tumour cells (NCI), 48 h
For test [1], the system named is UO-31.
Test [2] deals with OVCAR-8.
The test system of test [3] is UACC-62.
For test [4], the system named is T47D.
The test system of test [5] is 786-0.
Test [6] concerns SNB-75.
Test [7] concerns OVCAR-4.
Test [8] has as its system HCC 2998.
The test system of test [9] is SK-MEL-5.
The subject of test [10] is PC-3.
Test [11] relates to Hs-578T.
For test [12], the system named is EKVX.
The test system of test [13] is SW-620.
The test system of test [14] is U-251.
Test [15] concerns NCI-H460.
Test [16] has as its system TK-10.
The test system of test [17] is ACHN.
Test [18] has as its system NCI-H522.
In test [19] the test system is HL-60.
Test [20] concerns BT-549.

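The compound was tested at five concentrations on cells cultured in 96-well plates, with a 48-hour exposure period. At the GI50, growth is halved.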 Calls of active or inactive are those of the source. Cut-off read from the data, not from the text of the source: active = GI50 up to about 1.1 µM and inactive = higher.

Consider `Cc1ccc2c(c1)c1ccc3c(c1n2C)C(=O)C=CC3=O`, for which the GI50 in test [1] is 1.41 µM (inactive); in test [2] it was 2.18 µM (inactive); in test [3], 3.01 µM (inactive); in [4] it was 1.63 µM (inactive); in test [5], 1.95 µM (inactive); in test [6], > 10 µM (inactive). Moreover, the GI50 in test [7] was 2.32 µM (inactive); in test [8] it was 9.77 µM (inactive); in test [9] it was 4.56 µM (inactive); in test [10], 3.66 µM (inactive); in test [11] it was 3.08 µM (inactive); in test [12] it was > 4.85 µM (inactive). Further, the GI50 is 0.543 µM (active) in test [13]; > 7.31 µM (inactive) in test [14]; > 10 µM (inactive) in test [15]; 2 µM (inactive) in test [16]; 1.56 µM (inactive) in test [17]; 1.23 µM (inactive) in test [18]. In addition, the GI50 is 0.75 µM (active) in test [19] and 1.36 µM (inactive) in test [20].
For the compound `CCNC1=C(NC(=O)c2ccc(F)cc2)C(=O)c2ccccc2C1=O`, the GI50 is 32.7 µM (inactive) in test [2]; 15.1 µM (inactive) in test [3]; 47.1 µM (inactive) in [4]; > 100 µM (inactive) in test [5]; 62.2 µM (inactive) in test [6]; 40.1 µM (inactive) in test [7]. In addition, the GI50 in test [8] was 34.8 µM (inactive); in [9] it was 35 µM (inactive); in test [10], 17.3 µM (inactive); in test [11] it was > 100 µM (inactive); in test [12], > 100 µM (inactive); in [13], 32.2 µM (inactive). The GI50 is 50.1 µM (inactive) in test [15]; > 100 µM (inactive) in test [16]; > 100 µM (inactive) in [17]; 21 µM (inactive) in test [18]; 40.3 µM (inactive) in [19]; > 100 µM (inactive) in test [20].
Turning to `O=C1N/C(=N/N=C\c2ccccc2)N/C1=C/c1ccccc1`, the GI50 in [1] is 41.9 µM (inactive); in test [2], 26.2 µM (inactive); in [4], 30.3 µM (inactive); in test [5], 33.6 µM (inactive); in test [6], 25.6 µM (inactive); in test [7] it was 15.2 µM (inactive). Moreover, the GI50 in test [8] is 13.9 µM (inactive); in test [9], 35.4 µM (inactive); in [10], 24.9 µM (inactive); in test [11], 27.3 µM (inactive); in test [12], 23.8 µM (inactive); in [13], 38.5 µM (inactive). Besides, the GI50 in test [14] is 33.7 µM (inactive); in test [15], 20.6 µM (inactive); in test [16] it was 38.5 µM (inactive); in test [17], 13.2 µM (inactive); in test [18], 23.1 µM (inactive); in test [19], 34 µM (inactive). Besides, in test [20], the GI50 is 22.9 µM (inactive).
`CC(C)(C)OC(=O)C1CCC/C1=N/Nc1ccc([N+](=O)[O-])cc1[N+](=O)[O-]` (stereo not given): the GI50 in test [1] is 17.6 µM (inactive); in test [2], 27.5 µM (inactive); in test [3], 26.9 µM (inactive); in [4] it was 16.3 µM (inactive); in [5], 23 µM (inactive); in [6] it was 19.1 µM (inactive). The GI50 in [7] is 74.5 µM (inactive); in test [8], 42.9 µM (inactive); in [9], 13.9 µM (inactive); in test [10], 10.3 µM (inactive); in [11], 48.2 µM (inactive); in test [12] it was 24.7 µM (inactive). The GI50 was 27.9 µM (inactive) in test [13]; 22 µM (inactive) in test [14]; 37.9 µM (inactive) in [15]; 43.7 µM (inactive) in [16]; 45.3 µM (inactive) in test [17]; 18.8 µM (inactive) in test [18]. The GI50 is 44.3 µM (inactive) in test [19] and 24.9 µM (inactive) in test [20].
`COc1cc(OC)c(OC)cc1/C=C/c1cnnc2ccccc12`: the GI50 in test [1] was > 10 µM (inactive); in test [2], > 10 µM (inactive); in [3], > 10 µM (inactive); in test [4] it was > 10 µM (inactive); in test [5] it was > 10 µM (inactive); in test [6], 2.85 µM (inactive). Besides, the GI50 in test [7] was > 10 µM (inactive); in test [8] it was > 10 µM (inactive); in [9], > 10 µM (inactive); in test [10] it was 4.33 µM (inactive); in test [11] it was > 10 µM (inactive); in test [12], > 10 µM (inactive). Besides, the GI50 in [13], in [14], in test [15], in [16], in [17] and in [18] was > 10 µM (inactive) throughout. The GI50 in test [19] and in test [20] was > 10 µM (inactive) in each case.
Take `O=S(=O)(SC1=NCCN1)c1ccc2ccccc2c1`: the GI50 in [1] is 29.4 µM (inactive); in test [2], 20.7 µM (inactive); in [3], 30.1 µM (inactive); in test [4], 81.7 µM (inactive); in test [5] it was 28.1 µM (inactive); in test [6], 25.2 µM (inactive). The GI50 in [7] is 52.4 µM (inactive); in test [8] it was 20.6 µM (inactive); in test [9], 26.5 µM (inactive); in test [10], 30.7 µM (inactive); in [11], 35.6 µM (inactive); in test [12], 33.2 µM (inactive). In addition, the GI50 is 19.7 µM (inactive) in test [13]; 23.8 µM (inactive) in test [14]; 21.6 µM (inactive) in [15]; 89.1 µM (inactive) in [16]; 39.5 µM (inactive) in test [17]; 17.4 µM (inactive) in test [18]. In addition, the GI50 was 16.3 µM (inactive) in test [19] and 24.5 µM (inactive) in test [20].
As for `COC(=O)c1ccccc1NC(=O)C(=O)CC(=O)c1ccccc1NC1=CC(=O)C(=O)c2ccccc21`, the GI50 in test [1] was 15.1 µM (inactive); in [2], 7.01 µM (inactive); in test [3] it was 8.87 µM (inactive); in test [4], 18.7 µM (inactive); in test [5] it was 5.65 µM (inactive); in [6], 17.5 µM (inactive). Besides, the GI50 was 7.91 µM (inactive) in test [7]; 25.6 µM (inactive) in test [8]; 5.13 µM (inactive) in [9]; 10.9 µM (inactive) in test [10]; 7.45 µM (inactive) in test [11]; 44.8 µM (inactive) in test [12]. Besides, the GI50 is 5.4 µM (inactive) in test [13]; 11.1 µM (inactive) in test [14]; 19.7 µM (inactive) in test [15]; 67.6 µM (inactive) in [16]; 14.5 µM (inactive) in test [17]; 5.22 µM (inactive) in test [18]. The GI50 in test [19] was 1.55 µM (inactive); in test [20] it was 15.2 µM (inactive).
With `Cc1ccc(NC(=O)CSc2nc(C)nc3c2sc(=S)n3-c2ccccc2)cc1`, the GI50 in [2] was 6.76 µM (inactive); in test [3] it was > 10 µM (inactive); in [4], > 10 µM (inactive); in test [5], 2.37 µM (inactive); in test [6], 2.32 µM (inactive); in test [7], 2.2 µM (inactive). Also, the GI50 in [8] is > 10 µM (inactive); in test [9], > 10 µM (inactive); in test [10] it was > 10 µM (inactive); in test [11], 2.66 µM (inactive); in [12], 5.08 µM (inactive); in test [13], > 10 µM (inactive). The GI50 in [14] was 3.84 µM (inactive); in test [15], 5.48 µM (inactive); in test [16], > 10 µM (inactive); in [17], 8.77 µM (inactive); in [18], > 10 µM (inactive); in test [19], > 10 µM (inactive). In addition, the GI50 in test [20] was 4.09 µM (inactive).
Regarding `COC1CC(N)(c2ccccc2)C(O)C(C)O1` (stereo not given), the GI50 in test [1], in [2], in test [3], in [4], in test [5] and in test [6] was > 100 µM (inactive) each time. For the same compound, the GI50 in test [7], in test [8], in test [9], in test [10], in [11] and in test [12] was > 100 µM (inactive) in each case. The GI50 in [13], in test [14], in test [15], in [17], in test [18] and in [19] was > 100 µM (inactive) throughout. In addition, in [20], the GI50 was > 100 µM (inactive).
Consider `O=c1[nH]nc(-c2ccccc2)n1/N=C/c1cccc([N+](=O)[O-])c1`, for which the GI50 in test [1] was > 100 µM (inactive); in [2] it was 93.5 µM (inactive); in test [3], > 100 µM (inactive); in [4], > 100 µM (inactive); in test [5], > 100 µM (inactive); in [6], > 100 µM (inactive). Further, the GI50 in test [7], in test [8], in test [9], in test [10], in [11] and in test [12] was > 100 µM (inactive) throughout. Besides, the GI50 in [13] was > 100 µM (inactive); in test [14], 41.5 µM (inactive); in test [15], 91.6 µM (inactive); in [16], > 100 µM (inactive); in test [17], > 100 µM (inactive); in test [18], 8.15 µM (inactive). Moreover, the GI50 in test [19] and in [20] was > 100 µM (inactive) each time.
